Measured values as given in patent US9453019B2, “Linked purine pterin HPPK inhibitors useful as antibacterial agents” (THE UNITED STATES OF AMERICA, AS REPRESENTED BY THE …, priority 2010, dated 2016).

Experiments:
[1] = target: HPPK (Escherichia coli, UniProt P26281); experiment: Fluorometric titration binding study with HPPK; settings: room temperature; 100 mM Tris-HCl, pH 8.3; fluorescence titration, nonlinear least-squares analysis
Method: Binding studies were carried out at room temperature. Protein (HPPK) and ligand stock solutions were made in 100 mM Tris-HCl, pH 8.3, and their concentrations were determined spectrophotometrically using the following extinction coefficients: 21600 M^−1 cm^−1 at 280 nm for HPPK, 7000 M^−1 cm^−1 at 366 nm for the pteridone bisubstrate inhibitors such as compound 13, and 7124 M^−1 cm^−1 at 380 nm for the tetrahydropteridine bisubstrate inhibitors such as 28. A 3-mL dilute inhibitor solution in a fluorometric cuvette was titrated with the protein stock solution. Fluorescence was measured on a Horiba Jobin Yvon FluoroMax-4 fluorometer. The excitation wavelength and slit were 364-380 and 2-3 nm, respectively, and the emission wavelength and slit were 450-482 and 2-5 nm, respectively. […] For these HPPK preparations, a control experiment, in which a 3-mL buffer solution was titrated with the protein solution, was performed. The control data was subtracted from the titration data. The corrected titration data was then analyzed by nonlinear least-squares regression using the software Origin and the equation:
[formula] where Fobs is the observed fluorescence, εf and εb are the fluorescence coefficients of the ligand in the free and protein-bound states, respectively, Lt is the total concentration of the ligand, and Et is the total concentration of HPPK. […]

[2] = Stability of the compounds (stated in words, no method given); format: physicochemical; settings: qualitative statement; no conditions given

Chain of HPPK (P26281 whole entry): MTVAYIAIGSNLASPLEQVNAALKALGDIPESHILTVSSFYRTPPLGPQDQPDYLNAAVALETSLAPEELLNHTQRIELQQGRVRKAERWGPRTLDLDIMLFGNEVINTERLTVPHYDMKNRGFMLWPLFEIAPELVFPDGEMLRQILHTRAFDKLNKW

Structure (SMILES): Nc1nc2ncc(CNCCN3CCC(SC[C@H]4O[C@@H](n5cnc6c(N)ncnc65)C(O)C4O)CC3)nc2c(=O)[nH]1 (stereo in doubt) [Compound 13, 2-Amino-6-[(2-{4-[5-(6-amino-purin-9-yl)-3,4-dihydroxy-tetrahydro-furan-2-ylmethylsulfanyl]-piperidin-1-yl}-ethylamino)-methyl]-3H-pteridin-4-one]
- Kd [1]: 590 nM
- Stability of compound [2]: stable

Structure (SMILES): CC1(C)Nc2nc(N)[nH]c(=O)c2N=C1C(=O)NCCN1CCC(SC[C@H]2O[C@@H](n3cnc4c(N)ncnc43)C(O)C2O)CC1 (stereo in doubt) [Compound 28, 2-Amino-7,7-dimethyl-4-oxo-3,4,7,8-tetrahydro-pteridine-6-carboxylic acid (2-{4-[5-(6-amino-purin-9-yl)-3,4-dihydroxy-tetrahydro-furan-2-ylmethylsulfanyl]-piperidin-1-yl}-ethyl)-amide]
- Kd [1]: 330 nM
- Stability of compound [2]: stable
